According to PubChem BioAssay (NCI):
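The concentration for 50% growth inhibition is given as GI50. TGI: total growth inhibition.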

How the values were obtained:
Assay in all cases: NCI anticancer screen, dose series, 384-well format
[1] = system: RXF 393 renal
[2] = system: A549 NSCLC
[3] = system: NCI-H23 lung
[4] = system: NCI/ADR-RES ovarian
[5] = system: SN12C renal
[6] = system: K-562 leukemia
[7] = system: HL-60(TB) leukemia
[8] = system: HT29 colon
[9] = system: 786-0 renal
[10] = system: MCF7 breast
[11] = system: UO-31 renal
[12] = system: OVCAR-4 ovarian
[13] = system: SNB-19 CNS
[14] = system: HCT-116 colon
[15] = system: ACHN renal
[16] = system: A498 renal
[17] = system: IGROV1 ovarian
[18] = system: OVCAR-8 ovarian
[19] = system: HOP-62 NSCLC
[20] = system: SF-295 CNS
[21] = system: CCRF-CEM leukemia
[22] = system: LOX IMVI melanoma
[23] = system: NCI-H522 lung
[24] = system: MALME-3M melanoma
[25] = system: NCI-H226 lung
[26] = system: UACC-257 melanoma
[27] = system: HS 578T breast
[28] = system: SK-OV-3 ovarian
[29] = system: HCC-2998 colon
[30] = system: MDA-MB-435 melanoma
[31] = system: MOLT-4 leukemia
[32] = system: COLO 205 colon
[33] = system: SK-MEL-28 melanoma
[34] = system: NCI-H322M lung
[35] = system: DU-145 prostate
[36] = system: SF-539 CNS
[37] = system: SK-MEL-5 melanoma
[38] = system: KM12 colon
[39] = system: SF-268 CNS
[40] = system: SNB-75 CNS
[41] = system: U251 glioblastoma
[42] = system: HOP-92 NSCLC
[43] = system: BT-549 breast
[44] = system: SW-620 colon
[45] = system: M14 melanoma
[46] = system: UACC-62 melanoma
[47] = system: NCI-H460 NSCLC
[48] = system: MDA-MB-468 breast
[49] = system: EKVX NSCLC
[50] = system: HCT-15 colon
[51] = system: MDA-MB-231 breast
[52] = system: RPMI-8226 leukemia
[53] = system: OVCAR-3 ovarian
[54] = system: T-47D breast
[55] = system: CAKI-1 renal
[56] = system: TK-10 renal
[57] = system: OVCAR-5 ovarian
[58] = system: PC-3 prostate

Compound `C=CC(=O)Nc1cccc(Nc2nc(Nc3ccc(N4CCN(C(C)=O)CC4)cc3OC)ncc2C(F)(F)F)c1` has a GI50 [1] of 1.88 µM, a TGI [1] of 6.6 µM and a GI50 [2] of 0.597 µM. The TGI [2] was 4.84 µM, the GI50 [3] was 1.94 µM and the TGI [3] was 6.87 µM. The GI50 [4] was 10.6 µM, the TGI [4] was 22.7 µM and the GI50 [5] was 2.07 µM. The TGI [5] was 9.13 µM, the GI50 [6] was 3.76 µM and the TGI [6] was 13.5 µM. It also gave a GI50 [7] of 1.4 µM, a TGI [7] of 2.74 µM and a GI50 [8] of 1.8 µM. It also gave a TGI [8] of 5.07 µM, a GI50 [9] of 2.61 µM and a TGI [9] of 13.7 µM. For the same compound, the GI50 [10] was 0.905 µM, the TGI [10] was 5.28 µM and the GI50 [11] was 2.26 µM. For the same compound, the TGI [11] was 9.61 µM, the GI50 [12] was 4.33 µM and the TGI [12] was 34.6 µM. For the same compound, the GI50 [13] was 8.32 µM, the TGI [13] was 20.9 µM and the GI50 [14] was 3.04 µM. It also gave a TGI [14] of 13.1 µM, a GI50 [15] of 1.94 µM and a TGI [15] of 19 µM. For the same compound, the GI50 [16] was 1.81 µM, the TGI [16] was 9.76 µM and the GI50 [17] was 0.493 µM. For the same compound, the TGI [17] was 2.09 µM, the GI50 [18] was 2.83 µM and the TGI [18] was 10.2 µM. It also gave a GI50 [19] of 1.97 µM, a TGI [19] of 12.4 µM and a GI50 [20] of 6.74 µM. It also gave a TGI [20] of 19.8 µM, a GI50 [21] of 1.64 µM and a TGI [21] of 3.22 µM. The GI50 [22] was 2.64 µM, the TGI [22] was 10.4 µM and the GI50 [23] was 0.288 µM. It also gave a TGI [23] of 1.55 µM, a GI50 [24] of 2.39 µM and a TGI [24] of 8.83 µM. It also gave a GI50 [25] of 1.38 µM, a TGI [25] of 6.51 µM and a GI50 [26] of 2.54 µM. For the same compound, the TGI [26] was 11.1 µM, the GI50 [27] was 1.9 µM and the TGI [27] was 6.58 µM. The GI50 [28] was 2.03 µM, the TGI [28] was 9.89 µM and the GI50 [29] was 1.4 µM. For the same compound, the TGI [29] was 8.2 µM, the GI50 [30] was 4.73 µM and the TGI [30] was 17.1 µM. The GI50 [31] was 0.521 µM, the TGI [31] was 1.87 µM and the GI50 [32] was 1.34 µM. The TGI [32] was 3.19 µM, the GI50 [33] was 10.2 µM and the TGI [33] was 23.9 µM. It also gave a GI50 [34] of 1.22 µM, a TGI [34] of 3.35 µM and a GI50 [35] of 3.51 µM. For the same compound, the TGI [35] was 14 µM, the GI50 [36] was 3.46 µM and the TGI [36] was 14.1 µM. It also gave a GI50 [37] of 1.83 µM, a TGI [37] of 8.62 µM and a GI50 [38] of 2.16 µM. The TGI [38] was 14.4 µM, the GI50 [39] was 0.268 µM and the TGI [39] was 2.24 µM. The GI50 [40] was 2.98 µM, the TGI [40] was 12.2 µM and the GI50 [41] was 5.04 µM. The TGI [41] was 17.2 µM, the GI50 [42] was 2.06 µM and the TGI [42] was 7.69 µM. The GI50 [43] was 2.87 µM, the TGI [43] was 10.2 µM and the GI50 [44] was 1.75 µM. For the same compound, the TGI [44] was 3.45 µM, the GI50 [45] was 1.94 µM and the TGI [45] was 8.31 µM. It also gave a GI50 [46] of 2.36 µM, a TGI [46] of 11.8 µM and a GI50 [47] of 2.71 µM. For the same compound, the TGI [47] was 7.5 µM, the GI50 [48] was 0.157 µM and the TGI [48] was 0.81 µM. For the same compound, the GI50 [49] was 1.07 µM, the TGI [49] was 3.72 µM and the GI50 [50] was 2.17 µM. It also gave a TGI [50] of 8.75 µM, a GI50 [51] of 3.46 µM and a TGI [51] of 17.6 µM. It also gave a GI50 [52] of 1.89 µM, a TGI [52] of 5.16 µM and a GI50 [53] of 2.05 µM. The TGI [53] was 5.91 µM, the GI50 [54] was 1.44 µM and the TGI [54] was 5.28 µM. For the same compound, the GI50 [55] was 1.91 µM, the TGI [55] was 6.28 µM and the GI50 [56] was 1.62 µM. For the same compound, the TGI [56] was 4.78 µM, the GI50 [57] was 2.33 µM and the TGI [57] was 14.6 µM. For the same compound, the GI50 [58] was 4.33 µM and the TGI [58] was 15.9 µM.
